According to patent US7323468B2, “Pyridopyrazines and the use thereof as kinase inhibitors” (AEterna Zentaris GmbH, priority 2003, dated 2008):

How the values were obtained:
[1] = tested on: Raf-Mek-Erk cascade (GST-c-Raf-DD, GST-Mek1, His-Erk2); assay: Raf-Mek-Erk ELISA (cell-free reconstituted cascade, Erk phosphorylation); format: biochemical, human; settings: inhibition of Erk phosphorylation, 1 mM ATP, 10 concentrations 31.6 pM-100 μM
Method: The inhibitory effect on the following human serine/threonine and tyrosine kinases of the compounds of the invention was tested in conventional kinase assays: PKB/Akt1, c-Raf, B-Raf, Mek, PDGFRbeta, Flt-3, c-Kit, c-Ab1, KDR, FGFR1 and IGF1R. Both the full-length kinases and truncated fragments—but at least the cytoplasmic, constitutively active kinase domains—were employed. The kinases were prepared as recombinant fusion proteins with GST (glutathion S-transferase) or HIS Tag in Sf9 cell culture. Depending on the substrate type, the various kinase reactions were carried out in sandwich ELISA formates or by means of a simple substrate adsorption assay on 96-well Flashplates (Perkin Elmer).
The testing on substances on the Raf-Mek-Erk cascade is described in detail below. Selected test results for the Raf and Mek inhibitors are then listed.
Procedure: Raf-Mek-Erk ELISA
Potential inhibitors were firstly investigated at a concentration of 20 μg/ml in initial single-dose determinations on 96-well microtiter plates (MTPs). Substances with >70% inhibition were employed for dose-response studies.
Reconstitution of the Raf-Mek-Erk cascade was quantified with the aid of a cell-free ELISA.
A typical kinase assay was carried out in a final volume of 50 μl with in each case 20-150 ng of Raf, Mek, Erk kinase protein, 1 mM ATP, 10 mM MgCl2, 150 mM NaCl, 25 mM beta-glycerophosphate, 25 mM Hepes pH 7.5. Before the kinase reaction, the test substances were each preincubated singly with each of the three kinase proteins at room temperature for 30 minutes. For the kinase reaction, the kinases preincubated with test substance were combined and incubated at 26° C. for 30 minutes. The reaction was stopped by a final concentration of 2% SDS and 10 minutes at 50° C. in a heating block.
For the immunodetection, the reaction mixtures were transferred to 96-well MTPs coated with anti-Erk Ab(K-23, Santa Cruz Biotechnology, incubated at room temperature for 60 minutes and washed 3× with TBST. Anti-phospho-Erk Ab (#9106, New England Biolabs) 1:500 in 50 μl of TBST/1% BSA, was added and incubated at 4° C. overnight. After the MTPs had been washed 3× with TBST, secondary anti-mouse IgG^POD conjugate (#NA931, Pharmacia) 1:2500 was added, incubated at room temperature for 1 h and again washed 3× with TBST. For colorimetric detection of the kinase reaction, 50 μl of OPD (o-phenyldiamine dihydrochloride) chromogen buffer were pipetted into each of the wells and incubated at 37° C. for 30 minutes. The colour reaction was then determined in an ELISA reader at 492 nm.
The experimental determination of dose-response plots took place using the same experimental design with 10 semilogarithmically graded concentrations from 31.6 pM-100 μM. The IC50 values were calculated in GraphPadPrism.

In the case of `C=C(C)CNC(=S)Nc1ccc2ncc(-c3ccc4ccccc4c3)nc2n1` [Example 6, 1-(2-Methylallyl)-3-(3-naphthalen-2-ylpyrido[2,3-b]pyrazin-6-yl)thiourea], the melting point is reported as 239 to 240 °C (dec.).

Work on `O=[N+]([O-])c1ccc(NC(=S)Nc2ccc3ncc(-c4ccc5ccccc5c4)nc3n2)cc1` [Example 8, 1-(3-Naphthalen-2-ylpyrido[2,3-b]pyrazin-6-yl)-3-(4-nitrophenyl)thiourea] yielded an IC50 [1] greater than 100 µM.

In the case of `COc1ccc(-c2cnc3ccc(NC(=S)Nc4ccc([N+](=O)[O-])cc4)nc3n2)cc1` [Example 9, 1-[3-(4-Methoxyphenyl)pyrido[2,3-b]pyrazin-6-yl]-3-(4-nitrophenyl)thiourea], the IC50 [1] is reported as greater than 100 µM.

Compound `CC(C)(C)NC(=S)Nc1ccc2ncc(-c3ccccc3)nc2n1` [Example 10, 1-tert-Butyl-3-(3-phenylpyrido[2,3-b]pyrazin-6-yl)thiourea] has an IC50 [1] greater than 100 µM.

Compound `S=C(NCc1ccccc1)Nc1ccc2ncc(-c3ccccc3)nc2n1` [Example 13, 1-Benzyl-3-(3-phenylpyrido[2,3-b]pyrazin-6-yl)thiourea] has an IC50 [1] greater than 100 µM.

For `Cc1ccc(NC(=O)Nc2ccc3ncc(-c4ccccc4)nc3n2)cc1` [Example 15, 1-(3-Phenylpyrido[2,3-b]pyrazin-6-yl)-3-p-tolylurea], the IC50 [1] was greater than 100 µM.

In the case of `O=C(Nc1ccc(Cl)c(C(F)(F)F)c1)Nc1ccc2ncc(-c3ccccc3)nc2n1` [Example 16, 1-(4-Chloro-3-trifluoromethylphenyl)-3-(3-phenylpyrido[2,3-b]pyrazin-6-yl)urea], the IC50 [1] is reported as greater than 100 µM.
